# From patent US20110053773A1, “METHODS OF IMPROVING NUTRITIONAL VALUE OF PLANTS” (UNIVERSITY OF TENNESSEE RESEARCH FOUNDATION, priority 2009, published 2011)
# How the values were obtained:
# [1] = tested on: sweet corn (Zea mays var. rugosa) cultivar 'Incredible'; assay: Content analysis of sweet corn ears: crude protein, amino acids, detergent fiber, fatty acids, minerals (Example 1); format: in vivo; conditions: POST at b59 rates; every treatment incl. check also got atrazine 560 g ai/ha + COC 1% v/v; relative to treated check (atrazine), check=0
# Source text: Herbicide treatments were applied in a water carrier at 23 gallons of solution per acre on a field site near Knoxville, Tenn. and Painter, Va. Treatments include the following: 1) nicosulfuron at 35 g ai/ha (Accent); 2) mesotrione at 105 g ai/ha (Callisto); 3) nicosulfuron at 35 g ai/ha+mesotrione at 105 g ai/ha (Callisto+Accent); 4) tembotrione at 92 g ai/ha+isoxadifen-ethyl at 46 g ai/ha (Laudis); 5) topramezone at 15 g ai/ha (Impact); 6) nicosulfuron at 35 g ai/ha+isoxadifen-ethyl at 9 g ai/ha (Accent Q); 7) nicosulfuron at 35 g ai/ha+isoxadifen-ethyl at 9 g ai/ha+topramezone at 15 g ai/ha (Accent Q+Impact); 8) nicosulfuron 35 g ai/ha+isoxadifen-ethyl at 9 g ai/ha+mesotrione at 105 g ai/ha (Accent Q+Callisto); 9) treated check (atrazine or Aatrex). All treatments included a PRE application of atrazine plus metolachlor in order to maintain weed free conditions. In addition, all POST treatments (including the treated check) included atrazine at 560 g ai/ha and crop oil concentrate at 1% v/v. […] Sweet corn was harvested from the center two rows of each four row plot and weighed in the husk.
# 'Riviera' bermudagrass = assay: Visual tissue whitening of bermudagrass after mesotrione (Example 5); format: in vivo, Cynodon dactylon (L.) Pers.; conditions: 0.28 kg/ha postemergence
# Source text: Greenhouse and laboratory studies were initiated with ‘Riviera’ bermudagrass (Cynodon dactylon (L.) Pers.) treated postemergence with mesotrione at 0.28 kg×ha^−1 and sampled for tissue pigment concentrations at 0, 3, 7, 14, 21, 28 and 35 days after treatment (DAT; Table 16). […] Due to the antioxidant activity of these carotenoid pigments, these increases should improve bermudagrass stress tolerance (Kopsell et al., 2010).
structure (smiles),measurement,setting,value
"CS(=O)(=O)c1ccc(C(=O)C2C(=O)CCCC2=O)c([N+](=O)[O-])c1 [Mesotrione*CALLISTO, mesotrione]",Acid DF,[1],10 % of check
same,Alanine,[1],4 % of check
same,Amino Acid,[1],6 % of check
same,Aspartic ac,[1],7 % of check
same,Cysteine,[1],6 % of check
same,Glutamic ac,[1],6 % of check
same,Glycine,[1],4 % of check
same,Isoleucine,[1],6 % of check
same,Leucine,[1],6 % of check
same,Lysine,[1],12 % of check
same,Methionine,[1],2 % of check
same,Neutral DF,[1],13 % of check
same,Proline,[1],9 % of check
same,Protein,[1],7 % of check
same,Threonine,[1],16 % of check
same,Valine,[1],7 % of check
same,calcium,[1],0 % of check
same,copper,[1],0 % of check
same,iron,[1],21 % of check
same,magnesium,[1],20 % of check
same,manganese,[1],25 % of check
same,mon fattyac,[1],9 % of check
same,phosphorous,[1],12 % of check
same,polyfattyac,[1],12 % of check
same,potassium,[1],12 % of check
same,sat fattyac,[1],7 % of check
same,sodium,[1],21 % of check
same,tot fattyac,[1],11 % of check
same,zinc,[1],16 % of check
same,"visual tissue whitening, maximum",'Riviera' bermudagrass; by 14 DAT,38%
same,recovery of discolored tissue,'Riviera' bermudagrass; by 21 DAT,re-greening of discolored tissue was observed
